Measured values as given in the supplement of paper PMC6045584.
± gives the standard deviation of the averaged measurements.

Legend:
OLAPARIB = compound: O=C(c1cc(Cc2n[nH]c(=O)c3ccccc23)ccc1F)N1CCN(C(=O)C2CC2)CC1 [OLAPARIB]; assay: surviving fraction relative to DMSO-only wells; higher = less growth inhibition; details: exposure time: 5 days
Procedure, shortened: (§1)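 Inhibitors were tested at 0.5, 1, 5, 10, 50, 100, 500 and 1000 nM, applied continuously for five days beginning 24 hours after log-phase tumour cells were seeded at 250–500 per well in 384-well plates. CellTiter-Glo luminescence served as the viability measure, expressed as surviving fraction against the median of DMSO-only wells. Each line, screened three times, was kept only with replicate Pearson r >0.7 and median Z' >0.3.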

[1] = compound: COc1cc2ncnc(Nc3ccc(F)c(Cl)c3)c2cc1NC(=O)/C=C/CN1CCCCC1; assay: as above; details: exposure time: 5 days
Procedure, shortened: as §1

Test System	surviving fraction (OLAPARIB; 0.5 nM)	surviving fraction (OLAPARIB; 1 nM)	surviving fraction (OLAPARIB; 5 nM)	surviving fraction (OLAPARIB; 10 nM)	surviving fraction (OLAPARIB; 50 nM)	surviving fraction (OLAPARIB; 100 nM)	surviving fraction (OLAPARIB; 500 nM)	surviving fraction (OLAPARIB; 1000 nM)	surviving fraction ([1]; 0.5 nM)	surviving fraction ([1]; 1 nM)	surviving fraction ([1]; 5 nM)	surviving fraction ([1]; 10 nM)	surviving fraction ([1]; 50 nM)	surviving fraction ([1]; 100 nM)	surviving fraction ([1]; 500 nM)	surviving fraction ([1]; 1000 nM)
22RV1 PROSTATE	1.08 ± 0.029	1.04 ± 0.044	1.05 ± 0.036	1.01 ± 0.09	1.06 ± 0.031	1 ± 0.05	1.04 ± 0.049	0.997 ± 0.051	1 ± 0.17	1.04 ± 0.099	0.977 ± 0.059	1 ± 0.087	1.03 ± 0.05	0.97 ± 0.063	1.02 ± 0.061	0.9 ± 0.045
93VU HEADNECK	1.02 ± 0.1	1.01 ± 0.074	1.12 ± 0.033	1.07 ± 0.09	0.955 ± 0.072	0.955 ± 0.03	0.92 ± 0.049	0.837 ± 0.096	0.834 ± 0.065	0.8653 ± 0.005	0.651 ± 0.02	0.541 ± 0.12	0.465 ± 0.016	0.456 ± 0.034	0.353 ± 0.036	0.267 ± 0.025
143B BONE	1.025 ± 0.0014	1.044 ± 0.0092	1.04 ± 0.019	1 ± 0.025	1.05 ± 0.027	1.01 ± 0.017	1.02 ± 0.023	0.9915 ± 0.005	1.03 ± 0.027	1.006 ± 0.005	1.01 ± 0.067	1.01 ± 0.033	1.02 ± 0.018	1.01 ± 0.03	0.957 ± 0.016	0.831 ± 0.04
A549 LUNG	1.06 ± 0.036	1.07 ± 0.042	1.06 ± 0.031	1.05 ± 0.035	1.06 ± 0.025	1.04 ± 0.045	1.09 ± 0.021	1.02 ± 0.057	1.03 ± 0.089	0.985 ± 0.053	0.986 ± 0.08	0.962 ± 0.034	1.04 ± 0.066	1.02 ± 0.024	1 ± 0.044	1.02 ± 0.042
ASKA SYNOVIAL	1.16 ± 0.13	1.13 ± 0.043	1.14 ± 0.096	1.06 ± 0.09	0.936 ± 0.051	0.921 ± 0.044	0.772 ± 0.056	0.655 ± 0.071	1.11 ± 0.094	1.23 ± 0.051	1.15 ± 0.038	1.24 ± 0.14	1.3 ± 0.068	1.29 ± 0.04	0.959 ± 0.021	1.12 ± 0.019
BT20 BREAST	0.996 ± 0.12	1.14 ± 0.055	0.942 ± 0.14	1.04 ± 0.096	0.757 ± 0.1	0.732 ± 0.13	0.795 ± 0.21	0.773 ± 0.085	1.08 ± 0.071	1 ± 0.12	0.895 ± 0.015	0.934 ± 0.13	1.05 ± 0.028	0.996 ± 0.13	1.13 ± 0.045	0.809 ± 0.16
BT549 BREAST	1.03 ± 0.096	1.01 ± 0.064	0.941 ± 0.0053	0.9883 ± 0.0074	0.686 ± 0.041	0.719 ± 0.062	0.718 ± 0.033	0.598 ± 0.048	0.991 ± 0.049	1.1 ± 0.15	1.02 ± 0.17	1.06 ± 0.13	1 ± 0.037	0.927 ± 0.14	0.727 ± 0.058	0.473 ± 0.08
C33A CERVIX	1.04 ± 0.098	1.04 ± 0.02	1.07 ± 0.049	1.03 ± 0.017	1.05 ± 0.098	0.998 ± 0.14	0.895 ± 0.068	0.841 ± 0.11	0.793 ± 0.044	0.93 ± 0.15	0.899 ± 0.017	0.802 ± 0.085	0.517 ± 0.051	0.428 ± 0.022	0.358 ± 0.019	0.296 ± 0.02
CADOES1 SOFT TISSUE	1.01 ± 0.059	0.855 ± 0.072	1.03 ± 0.07	0.8393 ± 0.0035	0.951 ± 0.046	0.953 ± 0.076	0.895 ± 0.084	0.81 ± 0.14	0.985 ± 0.058	0.938 ± 0.14	1.03 ± 0.16	0.873 ± 0.046	0.884 ± 0.07	0.896 ± 0.047	0.891 ± 0.018	0.7 ± 0.031
CAL51 BREAST	0.97 ± 0.044	1 ± 0.051	0.95 ± 0.025	0.926 ± 0.07	0.948 ± 0.03	0.882 ± 0.076	0.828 ± 0.024	0.66 ± 0.051	0.985 ± 0.05	1.03 ± 0.076	1 ± 0.086	0.968 ± 0.031	1.03 ± 0.08	1.02 ± 0.1	0.9793 ± 0.0063	0.848 ± 0.027
CAL72 BONE	1.05 ± 0.017	1.098 ± 0.0086	1.0433 ± 0.00058	1.06 ± 0.033	0.98 ± 0.029	0.958 ± 0.027	0.949 ± 0.021	0.901 ± 0.029	1.08 ± 0.014	1.06 ± 0.042	1.08 ± 0.062	1.03 ± 0.024	1.06 ± 0.055	1.07 ± 0.034	0.943 ± 0.019	0.818 ± 0.017
CAL120 BREAST	0.9857 ± 0.0086	0.998 ± 0.018	1 ± 0.023	0.973 ± 0.024	0.979 ± 0.01	0.942 ± 0.04	0.892 ± 0.013	0.825 ± 0.043	0.98 ± 0.016	0.952 ± 0.014	0.965 ± 0.021	0.973 ± 0.038	0.959 ± 0.022	0.961 ± 0.04	0.837 ± 0.025	0.543 ± 0.019
CASKI CERVIX	0.921 ± 0.029	0.947 ± 0.057	0.993 ± 0.051	0.982 ± 0.015	0.859 ± 0.016	0.844 ± 0.026	0.749 ± 0.075	0.765 ± 0.068	0.801 ± 0.054	0.762 ± 0.015	0.468 ± 0.0036	0.336 ± 0.024	0.285 ± 0.025	0.2623 ± 0.0023	0.0627 ± 0.013	0.024 ± 0.002
CHLA90 AUTONOMIC GANGLIA	1.02 ± 0.065	1.07 ± 0.037	1.01 ± 0.035	0.993 ± 0.048	0.95 ± 0.052	1.01 ± 0.078	0.963 ± 0.061	0.966 ± 0.059	1 ± 0.048	0.982 ± 0.085	0.853 ± 0.049	0.834 ± 0.016	0.818 ± 0.023	0.769 ± 0.048	0.781 ± 0.04	0.596 ± 0.022
CME SYNOVIAL	1.29 ± 0.3	1.27 ± 0.059	1.23 ± 0.11	1.16 ± 0.22	0.737 ± 0.14	0.616 ± 0.051	0.386 ± 0.053	0.303 ± 0.021	1.2 ± 0.09	1.4 ± 0.17	1.29 ± 0.12	1.39 ± 0.15	1.42 ± 0.18	1.37 ± 0.11	1.26 ± 0.098	1.27 ± 0.12
COLO320DM LARGE INTESTINE	1.13 ± 0.19	0.997 ± 0.15	1.09 ± 0.046	1.03 ± 0.21	1.07 ± 0.091	1.03 ± 0.082	1.06 ± 0.048	0.991 ± 0.03	1.04 ± 0.011	1.15 ± 0.067	1.07 ± 0.015	1.07 ± 0.068	1.12 ± 0.076	1.07 ± 0.055	0.685 ± 0.03	0.377 ± 0.025
DU4475 BREAST	1.16 ± 0.21	1.36 ± 0.5	1.228 ± 0.009	1.22 ± 0.31	0.954 ± 0.28	0.739 ± 0.23	0.689 ± 0.21	0.517 ± 0.15	0.798 ± 0.057	0.876 ± 0.044	0.901 ± 0.12	0.987 ± 0.21	0.908 ± 0.14	1.09 ± 0.14	1.14 ± 0.19	0.985 ± 0.054
H23 LUNG	1.09 ± 0.03	1.07 ± 0.02	1.1 ± 0.022	1.064 ± 0.004	1.22 ± 0.03	1.13 ± 0.041	1.14 ± 0.0042	1.08 ± 0.02	0.91 ± 0.056	0.744 ± 0.035	0.468 ± 0.015	0.414 ± 0.026	0.381 ± 0.013	0.38 ± 0.018	0.332 ± 0.023	0.292 ± 0.023
HCC78 LUNG	0.948 ± 0.06	0.986 ± 0.2	1.03 ± 0.32	1.22 ± 0.46	1.12 ± 0.1	1.05 ± 0.12	0.987 ± 0.19	0.859 ± 0.068	0.902 ± 0.2	0.733 ± 0.13	0.87 ± 0.051	0.827 ± 0.21	0.749 ± 0.12	0.857 ± 0.086	0.595 ± 0.23	0.447 ± 0.02
HCC202 BREAST	0.896 ± 0.024	0.973 ± 0.12	0.987 ± 0.19	0.92 ± 0.2	0.713 ± 0.2	0.68 ± 0.026	0.737 ± 0.075	0.649 ± 0.1	1.1 ± 0.1	1.06 ± 0.15	0.723 ± 0.13	0.757 ± 0.14	0.373 ± 0.041	0.297 ± 0.067	0.131 ± 0.026	0.0933 ± 0.023
